{"source": "paper PMC11233931", "about": "“Remodeling tumor‐associated macrophage for anti‐cancer effects by rational design of irreversible inhibition of mitogen‐activated protein kinase‐activated protein kinase 2” (MedComm, 2024)", "assay_in_all_cases": "Eurofins kinase selectivity profile against 380 other human recombinant kinases (Table S2)", "assay_type_in_all_cases": "biochemical", "key": {"[1]": {"biological_target": "T1, 380 human recombinant protein kinases (Homo sapiens, UniProt Q14012)", "T1 construct": "purchased Eurofins (Celle Lévescault)", "settings": "CaMKI(h), read-out: Inhibition rate", "outline": "(§1)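 Values come from a contract kinase-profiling service that tested the compound at multiple concentrations across 380 recombinant human kinases, as an off-target check against the MK2 activity.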"}, "[2]": {"biological_target": "T2, 380 human recombinant protein kinases (Homo sapiens, UniProt P16234)", "T2 construct": "purchased Eurofins (Celle Lévescault)", "T2 sequence (P16234 24-1089)": "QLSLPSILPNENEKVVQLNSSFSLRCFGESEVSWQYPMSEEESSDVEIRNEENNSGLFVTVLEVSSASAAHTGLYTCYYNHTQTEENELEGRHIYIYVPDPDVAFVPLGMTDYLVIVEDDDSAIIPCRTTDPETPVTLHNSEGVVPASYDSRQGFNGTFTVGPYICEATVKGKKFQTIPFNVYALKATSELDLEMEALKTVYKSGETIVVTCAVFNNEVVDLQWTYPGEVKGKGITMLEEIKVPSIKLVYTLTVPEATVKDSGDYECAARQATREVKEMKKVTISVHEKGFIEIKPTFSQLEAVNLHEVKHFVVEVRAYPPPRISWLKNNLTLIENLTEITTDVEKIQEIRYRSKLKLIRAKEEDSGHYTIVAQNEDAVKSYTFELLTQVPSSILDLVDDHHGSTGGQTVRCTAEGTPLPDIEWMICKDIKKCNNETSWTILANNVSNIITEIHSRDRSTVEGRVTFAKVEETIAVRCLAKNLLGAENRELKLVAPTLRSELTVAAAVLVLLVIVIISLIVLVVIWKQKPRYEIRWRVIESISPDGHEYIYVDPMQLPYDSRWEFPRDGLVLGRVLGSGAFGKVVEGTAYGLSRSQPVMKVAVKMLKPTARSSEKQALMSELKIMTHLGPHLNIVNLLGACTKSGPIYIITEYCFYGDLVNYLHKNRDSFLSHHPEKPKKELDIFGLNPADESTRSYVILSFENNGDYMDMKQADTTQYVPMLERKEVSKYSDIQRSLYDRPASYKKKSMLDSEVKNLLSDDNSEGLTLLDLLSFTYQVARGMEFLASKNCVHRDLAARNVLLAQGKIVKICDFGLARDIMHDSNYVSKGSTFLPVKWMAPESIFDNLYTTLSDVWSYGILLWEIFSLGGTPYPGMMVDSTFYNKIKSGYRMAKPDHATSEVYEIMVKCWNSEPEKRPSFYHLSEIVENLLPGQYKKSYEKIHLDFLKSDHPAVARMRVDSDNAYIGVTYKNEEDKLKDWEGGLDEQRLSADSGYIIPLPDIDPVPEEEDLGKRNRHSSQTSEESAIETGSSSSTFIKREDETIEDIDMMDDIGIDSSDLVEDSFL", "settings": "PDGFRα(h), read-out: Inhibition rate", "outline": "as §1"}, "[3]": {"biological_target": "T3, 380 human recombinant protein kinases (Homo sapiens, UniProt O15530)", "T3 construct": "purchased Eurofins (Celle Lévescault)", "T3 sequence (O15530 1-556)": "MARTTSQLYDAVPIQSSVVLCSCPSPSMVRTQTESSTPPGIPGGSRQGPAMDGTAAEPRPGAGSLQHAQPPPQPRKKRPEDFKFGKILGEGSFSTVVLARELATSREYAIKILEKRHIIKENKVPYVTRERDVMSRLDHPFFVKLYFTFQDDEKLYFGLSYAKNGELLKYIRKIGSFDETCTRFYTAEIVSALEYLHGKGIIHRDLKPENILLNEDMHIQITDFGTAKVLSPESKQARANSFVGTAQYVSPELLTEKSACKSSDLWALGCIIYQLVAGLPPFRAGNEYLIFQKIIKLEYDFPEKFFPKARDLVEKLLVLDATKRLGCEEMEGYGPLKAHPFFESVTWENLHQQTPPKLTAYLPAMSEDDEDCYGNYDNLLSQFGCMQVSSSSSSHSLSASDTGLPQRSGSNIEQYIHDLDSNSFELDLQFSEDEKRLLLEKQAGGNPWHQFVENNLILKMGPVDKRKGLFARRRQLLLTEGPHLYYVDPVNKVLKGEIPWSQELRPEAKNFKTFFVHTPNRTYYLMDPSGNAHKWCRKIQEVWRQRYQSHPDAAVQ", "settings": "PDK1(h), read-out: Inhibition rate", "outline": "as §1"}, "[4]": {"biological_target": "T4, 380 human recombinant protein kinases (Homo sapiens, UniProt P53355)", "T4 construct": "purchased Eurofins (Celle Lévescault)", "settings": "DAPK1(h), read-out: Inhibition rate", "outline": "as §1"}, "[5]": {"biological_target": "T5, 380 human recombinant protein kinases (Homo sapiens, UniProt O00238)", "T5 construct": "purchased Eurofins (Celle Lévescault)", "T5 sequence (O00238 14-502)": "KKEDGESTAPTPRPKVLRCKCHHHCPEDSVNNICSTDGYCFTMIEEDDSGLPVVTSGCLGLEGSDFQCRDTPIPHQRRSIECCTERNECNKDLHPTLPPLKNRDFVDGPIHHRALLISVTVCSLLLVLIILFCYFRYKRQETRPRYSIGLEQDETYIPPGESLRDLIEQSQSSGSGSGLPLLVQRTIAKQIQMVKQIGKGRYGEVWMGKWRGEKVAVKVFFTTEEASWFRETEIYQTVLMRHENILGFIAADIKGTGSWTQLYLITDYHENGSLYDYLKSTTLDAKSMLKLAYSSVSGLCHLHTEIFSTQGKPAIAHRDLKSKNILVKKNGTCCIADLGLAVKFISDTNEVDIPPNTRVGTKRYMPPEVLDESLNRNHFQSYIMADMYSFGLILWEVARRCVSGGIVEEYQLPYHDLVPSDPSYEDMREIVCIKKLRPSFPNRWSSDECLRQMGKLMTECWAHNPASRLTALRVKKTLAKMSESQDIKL", "settings": "ALK6(h), read-out: Inhibition rate", "outline": "as §1"}, "[6]": {"biological_target": "T6, 380 human recombinant protein kinases (Homo sapiens, UniProt P48426)", "T6 construct": "purchased Eurofins (Celle Lévescault)", "T6 sequence (P48426 1-406)": "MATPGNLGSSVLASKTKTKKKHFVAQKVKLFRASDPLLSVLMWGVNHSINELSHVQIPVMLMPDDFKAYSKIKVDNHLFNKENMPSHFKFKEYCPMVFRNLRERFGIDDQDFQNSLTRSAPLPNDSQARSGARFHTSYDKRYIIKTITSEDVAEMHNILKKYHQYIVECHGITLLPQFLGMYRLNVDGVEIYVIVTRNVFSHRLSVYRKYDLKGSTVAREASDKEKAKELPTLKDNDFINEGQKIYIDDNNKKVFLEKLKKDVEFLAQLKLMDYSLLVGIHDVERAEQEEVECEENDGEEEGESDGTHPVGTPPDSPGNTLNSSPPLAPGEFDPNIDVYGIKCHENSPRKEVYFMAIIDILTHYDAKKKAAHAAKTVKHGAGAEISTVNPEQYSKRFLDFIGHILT", "settings": "PIP4K2α(h), read-out: Inhibition rate (%)", "outline": "as §1"}, "[7]": {"biological_target": "T7, 380 human recombinant protein kinases (Homo sapiens, UniProt P25098)", "T7 construct": "purchased Eurofins (Celle Lévescault)", "T7 sequence (P25098 1-689)": "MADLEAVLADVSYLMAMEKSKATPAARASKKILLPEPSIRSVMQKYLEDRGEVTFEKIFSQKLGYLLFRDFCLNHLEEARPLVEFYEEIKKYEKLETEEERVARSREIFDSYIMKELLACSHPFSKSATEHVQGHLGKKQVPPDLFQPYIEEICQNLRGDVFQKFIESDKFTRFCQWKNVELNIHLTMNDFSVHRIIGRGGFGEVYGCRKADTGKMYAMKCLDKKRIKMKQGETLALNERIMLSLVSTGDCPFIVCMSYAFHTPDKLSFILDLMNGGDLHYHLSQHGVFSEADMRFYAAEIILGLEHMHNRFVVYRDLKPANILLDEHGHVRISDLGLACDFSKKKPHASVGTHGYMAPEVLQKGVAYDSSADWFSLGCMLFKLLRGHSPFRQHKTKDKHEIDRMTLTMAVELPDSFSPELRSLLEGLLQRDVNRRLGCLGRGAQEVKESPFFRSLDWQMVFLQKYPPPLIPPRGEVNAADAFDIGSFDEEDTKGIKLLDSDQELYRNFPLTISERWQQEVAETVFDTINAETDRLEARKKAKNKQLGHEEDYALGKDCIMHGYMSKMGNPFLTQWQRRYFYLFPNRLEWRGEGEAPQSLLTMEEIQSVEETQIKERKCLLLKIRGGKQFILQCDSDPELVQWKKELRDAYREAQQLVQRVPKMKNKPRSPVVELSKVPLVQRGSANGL", "settings": "GRK2(h), read-out: Inhibition rate", "outline": "as §1"}, "[8]": {"biological_target": "T8, 380 human recombinant protein kinases (Homo sapiens, UniProt Q9H4A3)", "T8 construct": "purchased Eurofins (Celle Lévescault)", "settings": "WNK1(h), read-out: Inhibition rate (%)", "outline": "as §1"}, "[9]": {"biological_target": "T9, 380 human recombinant protein kinases (Homo sapiens, UniProt P00519, T315I)", "T9 construct": "purchased Eurofins (Celle Lévescault)", "settings": "Abl(T315I)(h), read-out: Inhibition rate", "outline": "as §1"}}, "data": [{"smiles": "C=CC(=O)Nc1cc(-c2cc(-c3cc4c([nH]3)CCNC4=O)ccn2)ccc1OC(F)(F)F", "note": "[compound 11]", "values": [{"measurement": "inhibition at 0.01 µM", "setting": "[1]; 10 nM", "value": -3, "unit": "%"}, {"measurement": "inhibition at 0.1 µM", "setting": "[1]; 100 nM", "value": -3, "unit": "%"}, {"measurement": "inhibition at 1 µM", "setting": "[1]; 1000 nM", "value": -6, "unit": "%"}, {"measurement": "inhibition at 0.01 µM", "setting": "[2]; 10 nM", "value": -5, "unit": "%"}, {"measurement": "inhibition at 0.1 µM", "setting": "[2]; 100 nM", "value": -3, "unit": "%"}, {"measurement": "inhibition at 1 µM", "setting": "[2]; 1000 nM", "value": -2, "unit": "%"}, {"measurement": "inhibition at 0.01 µM", "setting": "[3]; 10 nM", "value": -9, "unit": "%"}, {"measurement": "inhibition at 0.1 µM", "setting": "[3]; 100 nM", "value": -2, "unit": "%"}, {"measurement": "inhibition at 1 µM", "setting": "[3]; 1000 nM", "value": 3, "unit": "%"}, {"measurement": "inhibition at 0.01 µM", "setting": "[4]; 10 nM", "value": 2, "unit": "%"}, {"measurement": "inhibition at 0.1 µM", "setting": "[4]; 100 nM", "value": 5, "unit": "%"}, {"measurement": "inhibition at 1 µM", "setting": "[4]; 1000 nM", "value": 12, "unit": "%"}, {"measurement": "inhibition at 0.01 µM", "setting": "[5]; 10 nM", "value": -13, "unit": "%"}, {"measurement": "inhibition at 0.1 µM", "setting": "[5]; 100 nM", "value": 4, "unit": "%"}, {"measurement": "inhibition at 1 µM", "setting": "[5]; 1000 nM", "value": 6, "unit": "%"}, {"measurement": "inhibition at 0.01 µM", "setting": "[6]; 10 nM", "value": -1, "unit": "%"}, {"measurement": "inhibition at 0.1 µM", "setting": "[6]; 100 nM", "value": -3, "unit": "%"}, {"measurement": "inhibition at 1 µM", "setting": "[6]; 1000 nM", "value": -1, "unit": "%"}, {"measurement": "inhibition at 0.01 µM", "setting": "[7]; 10 nM", "value": -6, "unit": "%"}, {"measurement": "inhibition at 0.1 µM", "setting": "[7]; 100 nM", "value": -9, "unit": "%"}, {"measurement": "inhibition at 1 µM", "setting": "[7]; 1000 nM", "value": -2, "unit": "%"}, {"measurement": "inhibition at 0.01 µM", "setting": "[8]; 10 nM", "value": 6, "unit": "%"}, {"measurement": "inhibition at 0.1 µM", "setting": "[8]; 100 nM", "value": 2, "unit": "%"}, {"measurement": "inhibition at 1 µM", "setting": "[8]; 1000 nM", "value": 4, "unit": "%"}, {"measurement": "inhibition at 0.01 µM", "setting": "[9]; 10 nM", "value": 6, "unit": "%"}, {"measurement": "inhibition at 0.1 µM", "setting": "[9]; 100 nM", "value": 11, "unit": "%"}, {"measurement": "inhibition at 1 µM", "setting": "[9]; 1000 nM", "value": 31, "unit": "%"}]}]}
